Drawing on patent US20230097157A1, “Bicyclic Pyridin-2-one and pyrimidin-4-one Derivatives Useful As a Factor XIa Inhibitors” (Janssen Pharmaceutica NV, priority 2021, published 2023), this text covers IC50 for 20 molecules.

One test has as its target human plasma kallikrein (Homo sapiens, UniProt P03952). Briefly: Kallikrein inhibition assay (FLINT) utilizing a quenched AMC peptide substrate Z-Gly-Pro-Arg-AMC. It is filed as biochemical. The conditions noted are these: kinetic (KIN) reads, read-out: Kallikrein KIN Inh IC50. The gist of the method: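 Human plasma kallikrein (2 nM final) pre-incubated 30 min with compound (11-point 3-fold series, top 1 μM, 2% DMSO), then 50 μM Z-Gly-Pro-Arg-AMC added. Buffer 50 mM Tris pH 7.5, 100 mM NaCl, 5 mM CaCl2, BSA, CHAPS. AMC fluorescence (340/440 nm) read kinetically over 30 min at room temperature, IC50 by 4-parameter logistic fit.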

The next test deals with Factor XIa (Homo sapiens, UniProt P03951). As to the kind of experiment: Factor XIa inhibition assay (FLINT) utilizing a fluorophore-quencher pair peptide substrate 5Fam-[…]-K5Tamra. It is filed as biochemical. The conditions noted are these: kinetic (KIN) reads, read-out: FXIa KIN Inh IC50. The gist of the method: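 FXIa was preincubated with compound for 30 min at room temperature in Tris pH 7.5 buffer containing CaCl2, BSA and CHAPS, then reacted with 15 μM quenched 5Fam/Tamra peptide substrate. Fluorescence (485/520 nm) was read kinetically every 5 min for 30 min.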

Each structure is given as a SMILES string. Like-named read-outs stand apart in the source and are kept apart here.

Sequence of Factor XIa (P03951 388-625 limits assumed): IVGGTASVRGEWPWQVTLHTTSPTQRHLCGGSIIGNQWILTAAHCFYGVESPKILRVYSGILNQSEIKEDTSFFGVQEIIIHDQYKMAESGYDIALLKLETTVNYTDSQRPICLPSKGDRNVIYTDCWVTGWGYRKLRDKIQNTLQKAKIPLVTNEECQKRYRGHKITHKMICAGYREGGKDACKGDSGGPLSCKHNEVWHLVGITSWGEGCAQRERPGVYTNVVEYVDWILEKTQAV
Sequence of Factor XIa (P03951 19-387 partner limits assumed): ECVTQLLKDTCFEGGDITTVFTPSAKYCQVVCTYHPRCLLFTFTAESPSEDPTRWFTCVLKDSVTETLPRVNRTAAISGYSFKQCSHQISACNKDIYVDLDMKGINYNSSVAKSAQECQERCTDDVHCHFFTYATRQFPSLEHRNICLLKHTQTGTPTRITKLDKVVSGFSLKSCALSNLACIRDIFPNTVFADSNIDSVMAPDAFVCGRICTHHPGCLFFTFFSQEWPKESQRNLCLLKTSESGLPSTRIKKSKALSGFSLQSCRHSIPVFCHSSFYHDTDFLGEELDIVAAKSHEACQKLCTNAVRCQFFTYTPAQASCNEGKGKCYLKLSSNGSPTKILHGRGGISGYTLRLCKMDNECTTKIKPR
Sequence of human plasma kallikrein (P03952 391-638 limits assumed): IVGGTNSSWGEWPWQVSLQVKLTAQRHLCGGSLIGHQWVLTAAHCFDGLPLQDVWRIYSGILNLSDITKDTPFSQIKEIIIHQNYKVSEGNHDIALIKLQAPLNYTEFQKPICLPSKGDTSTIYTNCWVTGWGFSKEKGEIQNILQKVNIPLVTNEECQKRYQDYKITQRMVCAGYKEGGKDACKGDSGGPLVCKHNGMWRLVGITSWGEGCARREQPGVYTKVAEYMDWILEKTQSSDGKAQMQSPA
Sequence of human plasma kallikrein (P03952 20-390 partner limits assumed): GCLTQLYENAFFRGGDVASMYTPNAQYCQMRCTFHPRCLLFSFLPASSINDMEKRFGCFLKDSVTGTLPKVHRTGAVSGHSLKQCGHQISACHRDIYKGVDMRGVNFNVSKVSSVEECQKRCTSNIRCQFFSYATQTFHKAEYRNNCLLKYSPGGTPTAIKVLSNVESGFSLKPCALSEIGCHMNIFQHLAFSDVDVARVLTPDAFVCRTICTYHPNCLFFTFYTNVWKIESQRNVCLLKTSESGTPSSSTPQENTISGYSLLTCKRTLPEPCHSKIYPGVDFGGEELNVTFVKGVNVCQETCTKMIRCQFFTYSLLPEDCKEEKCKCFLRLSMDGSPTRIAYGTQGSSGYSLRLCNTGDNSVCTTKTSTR

What is called IC50 is the concentration that gives 50% inhibition. Consider `C[C@H]1C[C@@H](c2ncc(-c3ccc(N)nc3F)[nH]2)n2c1cc(-c1c(-n3cnnn3)ccc(Cl)c1F)cc2=O` [Example 67, (1S,3S)-3-(5-(6-Amino-2-fluoropyridin-3-yl)-1H-imidazol-2-yl)-7-(3-chloro-2-fluoro-6-(1H-tetrazol-1-yl)phenyl)-1-methyl-2,3-dihydroindolizin-5(1H)-one], for which the figures for the concentration for half-maximal inhibition (IC50) on human plasma kallikrein (values in nM) and at Factor XIa (values in nM) were 20.6 nM and 0.4 nM, respectively.
As to `Nc1ccc(-c2cnc([C@@H]3CC4(CC4)c4cc(-c5c(-n6cnnn6)ccc(Cl)c5F)cc(=O)n43)[nH]2)c(F)n1` [Example 25, (S)-3′-(5-(6-Amino-2-fluoropyridin-3-yl)-1H-imidazol-2-yl)-7′-(3-chloro-2-fluoro-6-(1H-tetrazol-1-yl)phenyl)-2′,3′-dihydro-5′H-spiro[cyclopropane-1,1′-indolizin]-5′-one], the values for the IC50 on human plasma kallikrein (values in nM) and on Factor XIa (values in nM) were 14.1 nM and 0.6 nM, respectively.
For `COC(=O)Nc1ccc(-c2cnc([C@H]3C[C@@H](C)c4nc(-c5c(-n6cnnn6)ccc(Cl)c5F)cc(=O)n43)[nH]2)cn1` (stereo in doubt) [Example 117, Methyl (5-(2-((6*R,8*R)-2-(3-Chloro-2-fluoro-6-(1H-tetrazol-1-yl)phenyl)-8-methyl-4-oxo-4,6,7,8-tetrahydropyrrolo[1,2-a]pyrimidin-6-yl)-1H-imidazol-5-yl)pyridin-2-yl)carbamate], the IC50 is more than 10000 nM at human plasma kallikrein (unit μM) and 6100 nM at Factor XIa (unit μM).
Turning to `COc1cc(-c2cnc([C@H]3C[C@H](C)c4nc(-c5c(-n6cnnn6)ccc(Cl)c5F)cc(=O)n43)[nH]2)ccn1` (stereo in doubt) [Example 100, (6*R,8*S)-2-(3-Chloro-2-fluoro-6-(1H-tetrazol-1-yl)phenyl)-6-(5-(2-methoxypyridin-4-yl)-1H-imidazol-2-yl)-8-methyl-7,8-dihydropyrrolo[1,2-a]pyrimidin-4(6H)-one], the half-maximal inhibitory concentration (IC50) turned out to be 7.6 nM at human plasma kallikrein (values in nM) and 6.9 nM at Factor XIa (values in nM).
For `CC(=O)Nc1ncc(-c2cnc(C3CC4(CC4)c4cc(-c5c(-n6cnnn6)ccc(Cl)c5F)cc(=O)n43)[nH]2)s1` (stereo not shown) [Example 22], in that order: 294 nM and 253 nM.
Turning to `C[C@H]1C[C@@H](c2ncc(-c3ccc(N)nc3Cl)[nH]2)n2c1nc(-c1c(-n3cnnn3)ccc(Cl)c1F)cc2=O` (single isomer, unassigned) [Example 140], the IC50 was 9100 nM on human plasma kallikrein (unit μM) and approximately 575 nM at Factor XIa (values in nM).
Turning to `C[C@@H]1C[C@H](c2ncc(-c3ccnn3C)[nH]2)n2c1nc(-c1c(-n3cnnn3)ccc(Cl)c1F)cc2=O` (stereo in doubt) [Example 143, (6R*,8R*)-2-(3-Chloro-2-fluoro-6-(1H-tetrazol-1-yl)phenyl)-8-methyl-6-(5-(1-methyl-1H-pyrazol-5-yl)-1H-imidazol-2-yl)-7,8-dihydropyrrolo[1,2-a]pyrimidin-4(6H)-one], the 50% inhibitory concentration (IC50) on human plasma kallikrein (unit μM) and on Factor XIa (unit μM) was more than 10000 nM throughout.
`CC1C[C@H](c2nc(-c3cnc(N)cn3)c[nH]2)n2c1nc(-c1c(-n3cc(C(F)(F)F)nn3)ccc(Cl)c1F)cc2=O` (stereo partly drawn) [Example 79, (6R)-6-(4-(5-aminopyrazin-2-yl)-1H-imidazol-2-yl)-2-(3-chloro-2-fluoro-6-(4-(trifluoromethyl)-1H-1,2,3-triazol-1-yl)phenyl)-8-methyl-7,8-dihydropyrrolo[1,2-a]pyrimidin-4(6H)-one]: the 50% inhibitory concentration (IC50) at human plasma kallikrein (values in nM) is 324 nM; on Factor XIa (values in nM), 63.5 nM.
With `C[C@H]1C[C@@H](c2ncc(-c3cc(N)nn3C)[nH]2)n2c1cc(-c1c(-n3cnnn3)ccc(Cl)c1F)cc2=O` [Example 15, (1S,3S)-3-(5-(3-Amino-1-methyl-1H-pyrazol-5-yl)-1H-imidazol-2-yl)-7-(3-chloro-2-fluoro-6-(1H-tetrazol-1-yl)phenyl)-1-methyl-2,3-dihydroindolizin-5(1H)-one], the IC50 at human plasma kallikrein (unit μM) came out at 3200 nM; at Factor XIa (values in nM), 165 nM.
For the molecule `COc1nccc(-c2cnc([C@H]3C[C@H](C)c4nc(-c5c(-n6cnnn6)ccc(Cl)c5F)cc(=O)n43)[nH]2)n1` (relative stereo) [Example 104, (6*R,8*S)-2-(3-Chloro-2-fluoro-6-(1H-tetrazol-1-yl)phenyl)-6-(5-(2-methoxypyrimidin-4-yl)-1H-imidazol-2-yl)-8-methyl-7,8-dihydropyrrolo[1,2-a]pyrimidin-4(6H)-one], the IC50 at human plasma kallikrein (values in nM) worked out at 115 nM; on Factor XIa (values in nM), 113 nM.
The like results for `CC1CC(c2ncc(-c3ccnc(CO)c3F)[nH]2)n2c1nc(-c1c(-n3cnnn3)ccc(Cl)c1F)cc2=O` (single isomer, unassigned) [Example 77, (6S*)-2-(3-Chloro-2-fluoro-6-(1H-tetrazol-1-yl)phenyl)-6-(5-(3-fluoro-2-(hydroxymethyl)pyridin-4-yl)-1H-imidazol-2-yl)-8-methyl-7,8-dihydropyrrolo[1,2-a]pyrimidin-4(6H)-one] were, in that order, 167 nM and 19.6 nM.
Consider `C[C@H]1C[C@H](c2ncc(-c3ncc(N)nc3C(F)F)[nH]2)n2c1nc(-c1c(-n3cnnn3)ccc(Cl)c1F)cc2=O` (relative stereo) [Example 85, (6*R,8*S)-6-(5-(5-Amino-3-(difluoromethyl)pyrazin-2-yl)-1H-imidazol-2-yl)-2-(3-chloro-2-fluoro-6-(1H-tetrazol-1-yl)phenyl)-8-methyl-7,8-dihydropyrrolo[1,2-a]pyrimidin-4(6H)-one], for which the half-inhibitory concentration (IC50) was more than 1000 nM at human plasma kallikrein (unit μM) and 52 nM at Factor XIa (values in nM).
As to `C[C@H]1C[C@H](c2ncc(-c3ccnc(N)c3F)[nH]2)n2c1nc(-c1c(-n3cnnn3)ccc(Cl)c1F)cc2=O` (relative stereo) [Example 87, (6R*,8S*)-6-(5-(2-amino-3-fluoropyridin-4-yl)-1H-imidazol-2-yl)-2-(3-chloro-2-fluoro-6-(1H-tetrazol-1-yl)phenyl)-8-methyl-7,8-dihydropyrrolo[1,2-a]pyrimidin-4(6H)-one], the IC50 was determined as 27.7 nM on human plasma kallikrein (values in nM) and 1.5 nM at Factor XIa (values in nM).
Turning to `C[C@H]1C[C@@H](c2ncc(-c3ccc4nccn4c3)[nH]2)n2c1cc(-c1c(-n3cnnn3)ccc(Cl)c1F)cc2=O` (stereo in doubt) [Example 48, (1S*,3S*)-7-(3-Chloro-2-fluoro-6-(1H-tetrazol-1-yl)phenyl)-3-(5-(imidazo[1,2-a]pyridin-6-yl)-1H-imidazol-2-yl)-1-methyl-2,3-dihydroindolizin-5(1H)-one], the half-inhibitory concentration (IC50) at human plasma kallikrein (unit μM) is more than 10000 nM; on Factor XIa (unit μM) it was 3000 nM.
With `Nc1ccc(-c2cnc([C@H]3CC4(CC4)c4cc(-c5c(-n6cnnn6)ccc(Cl)c5F)cc(=O)n43)[nH]2)c(F)n1` [Example 24, (R)-3′-(5-(6-Amino-2-fluoropyridin-3-yl)-1H-imidazol-2-yl)-7′-(3-chloro-2-fluoro-6-(1H-tetrazol-1-yl)phenyl)-2′,3′-dihydro-5′H-spiro[cyclopropane-1,1′-indolizin]-5′-one], the IC50 on human plasma kallikrein (unit μM) is more than 10000 nM; at Factor XIa (unit μM), 1100 nM.
On to `C[C@@H]1C[C@H](c2ncc(-c3cnc(N)nc3)[nH]2)n2c1nc(-c1c(-n3cnnn3)ccc(Cl)c1F)cc2=O` (stereo in doubt) [Example 114, (6*R,8*R)-6-(5-(2-Aminopyrimidin-5-yl)-1H-imidazol-2-yl)-2-(3-chloro-2-fluoro-6-(1H-tetrazol-1-yl)phenyl)-8-methyl-7,8-dihydropyrrolo[1,2-a]pyrimidin-4(6H)-one], for which the IC50 at human plasma kallikrein (values in nM) came out at 284 nM; on Factor XIa (values in nM) it was 111 nM.
Regarding `C[C@H]1C[C@H](c2ncc(-c3ccc(NC(=O)C4CC4)nc3)[nH]2)n2c1nc(-c1c(-n3cnnn3)ccc(Cl)c1F)cc2=O` (stereo in doubt) [Example 121, N-(5-(2-((6*R,8*S)-2-(3-Chloro-2-fluoro-6-(1H-tetrazol-1-yl)phenyl)-8-methyl-4-oxo-4,6,7,8-tetrahydropyrrolo[1,2-a]pyrimidin-6-yl)-1H-imidazol-5-yl)pyridin-2-yl)cyclopropanecarboxamide], the IC50 on human plasma kallikrein (unit μM) amounted to 4800 nM; at Factor XIa (values in nM), 675 nM.
For `C[C@H]1C[C@@H](c2ncc(-c3sc(N)nc3C(F)(F)F)[nH]2)n2c1cc(-c1c(-n3cnnn3)ccc(Cl)c1F)cc2=O` [Example 27, (1S,3S)-3-(5-(2-Amino-4-(trifluoromethyl)thiazol-5-yl)-1H-imidazol-2-yl)-7-(3-chloro-2-fluoro-6-(1H-tetrazol-1-yl)phenyl)-1-methyl-2,3-dihydroindolizin-5(1H)-one], in that order: 2400 nM and 483 nM.
On to `Cc1cc(-c2cnc([C@@H]3C[C@@H](C)c4cc(-c5c(-n6cnnn6)ccc(Cl)c5F)cc(=O)n43)[nH]2)ccn1` (stereo in doubt) [Example 41, (1*R,3*S)-7-(3-Chloro-2-fluoro-6-(1H-tetrazol-1-yl)phenyl)-1-methyl-3-(5-(2-methylpyridin-4-yl)-1H-imidazol-2-yl)-2,3-dihydroindolizin-5(1H)-one], for which the IC50 is 2200 nM on human plasma kallikrein (unit μM) and 346 nM on Factor XIa (values in nM).
As for `O=c1cc(-c2c(-n3cnnn3)ccc(Cl)c2F)cc2n1[C@@H](c1ncc(-c3ccnc(CO)c3F)[nH]1)CC21CC1` (single isomer, unassigned) [Example 8], the IC50 is more than 1000 nM on human plasma kallikrein (unit μM) and more than 100 nM at Factor XIa (values in nM).
